Laboratory results from patent US10821115B2, “Compounds that inhibit Mcl-1 protein” (priority 2017, dated 2020).
Read-outs that look alike come from different tables or passages of the source.

Key:
[1] = test system: human multiple myeloma cell line, OPM-2; test: Cell viability assay (OPM-2 10 FBS), CellTiter-Glo; assay type: cell-based
Summary of the method: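 Steps: plate cells at 3000/well in 10% FBS growth medium, add serially diluted compound, incubate 16 h at 37 °C with 5% CO2, add detection reagent and read luminescence after 25 min. A 4-parameter logistic model gives IC50.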

[2] = biological target: recombinant human Mcl-1 (residues 171-327) / Bim interaction (Homo sapiens (Human), UniProt Q07820); test: biochemical; assay type: binding; conditions: read-out: Mcl-1 HTRF IC50
Chain of recombinant human Mcl-1 (residues 171-327) / Bim interaction (Q07820 171-327): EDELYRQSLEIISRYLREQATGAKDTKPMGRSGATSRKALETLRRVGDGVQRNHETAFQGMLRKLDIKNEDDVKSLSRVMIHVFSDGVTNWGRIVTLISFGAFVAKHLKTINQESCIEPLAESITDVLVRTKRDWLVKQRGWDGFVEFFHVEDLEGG

[3] = read-out: OPM-2 10% FBS IC50 IP, OPM-2 cells, 10% FBS, 16 h, CellTiter-Glo
[4] = TR-FRET, Mcl-1(171-327) / biotin-Bim (51-76)
[5] = Homo sapiens, OPM-2, 16 h, read-out: OPM-2 10% FBS IC50 IP, OPM-2 cells, 10% FBS, 16 h incubation
[6] = 0.1 nM Mcl-1(171-327), 0.05 nM biotin-Bim (51-76)
[7] = Homo sapiens, OPM-2, 16 h, read-out: OPM-2 10% FBS IC50 IP, OPM-2 cells, 10% FBS, 16 h, CellTiter-Glo
[8] = read-out: OPM-2 10% FBS IC50 IP, OPM-2 cells, 10% FBS, 16 h incubation

Molecule | IC50 [2, 4] | IC50 [2, 6] | IC50 [1, 7] | also measured
COC[C@]1(OC)CCC[C@H](C)[C@@H](C)S(=O)(=O)NC(=O)c2ccc3c(c2)N(C[C@@H]2CC[C@H]21)C[C@@]1(CCCc2cc(Cl)ccc21)CO3 [Example 100225, (1S,3′R,6′R,7′S,11′S,12′R)-6-chloro-7′-methoxy-7′-(methoxymethyl)-11′,12′-dimethyl-3,4-dihydro-2H,15′H-spiro[naphthalene-1,22′-[20]oxa[13]thia[1,14]diazatetracyclo [14.7.2.0~3,6~.0~19,24~]pentacosa[16,18,24]trien]-15′-one 13′,13′-dioxide] | 0.639 nM | – | – | IC50 [1, 3]: 882 nM
CO[C@@]1(CN2CCN(CC(F)(F)F)CC2)/C=C/C[C@H](C)[C@@H](C)S(=O)(=O)NC(=O)c2ccc3c(c2)N(C[C@@H]2CC[C@H]21)C[C@@]1(CCCc2cc(Cl)ccc21)CO3 [Example 248, (1S,3′R,6′R,7′S,8′E,11′S,12′R)-6-chloro-7′-methoxy-11′,12′-dimethyl-7′-((4-(2,2,2-trifluoroethyl)-1-piperazinyl)methyl)-3,4-dihydro-2H,15′H-spiro[naphthalene-1,22′-[20]oxa[13]thia[1,14]diazatetracyclo [14.7.2.0~3,6~.0~19,24~]pentacosa[8,16,18,24]tetraen]-15′-one 13′,13′-dioxide] | – | 0.222 nM | – | IC50 [1, 5]: 518 nM
CO[C@@]1(Cc2ncccc2C)/C=C/C[C@H](C)[C@@H](C)S(=O)(=O)NC(=O)c2ccc3c(c2)N(C[C@@H]2CC[C@H]21)C[C@@]1(CCCc2cc(Cl)ccc21)CO3 [Example 100542, (1S,3′R,6′R,7′S,8′E,11′S,12′R)-6-chloro-7′-methoxy-11′,12′-dimethyl-7′-((3-methyl-2-pyridinyl)methyl)-3,4-dihydro-2H,15′H-spiro[naphthalene-1,22′-[20]oxa[13]thia[1,14]diazatetracyclo [14.7.2.0~3,6~.0~19,24~]pentacosa[8,16,18,24]tetraen]-15′-one 13′,13′-dioxide] | 0.229 nM | – | 902 nM | –
C[C@@H]1[C@@H](C)CCCC(CO)(CO)[C@@H]2CC[C@H]2CN2C[C@@]3(CCCc4cc(Cl)ccc43)COc3ccc(cc32)C(=O)NS1(=O)=O [Example 100342, (1S,3′R,6′R,11′S,12′R)-6-chloro-7′,7′-bis(hydroxymethyl)-11′,12′-dimethyl-3,4-dihydro-2H,15′H-spiro[naphthalene-1,22′-[20]oxa[13]thia[1,14]diazatetracyclo [14.7.2.0~3,6~.0~19,24~]pentacosa[16,18,24]trien]-15′-one 13′,13′-dioxide] | 1.69 nM | – | 782 nM | –
C[C@@H]1[C@@H](C)C/C=C/[C@]2(CN(CC3CCOCC3)CCO2)[C@@H]2CC[C@H]2CN2C[C@@]3(CCCc4cc(Cl)ccc43)COc3ccc(cc32)C(=O)NS1(=O)=O [Example 135, (1S,3′R,6′R,7′R,8′E,11′S,12′R)-6-chloro-11′,12′-dimethyl-4″- (tetrahydro-2H-pyran-4-ylmethyl)-3,4-dihydro-2H,15′H-dispiro[naphthalene-1,22′-[20]oxa[13]thia[1,14]diazatetracyclo [14.7.2.0~3,6~.0~19,24~]pentacosa[8,16,18,24]tetraene-7′,2″-[1,4]oxazinan]-15′-one 13′,13′-dioxide] | – | 8.18 nM | – | IC50 [1, 5]: > 33300 nM
CC[C@@H]1CC/C=C/[C@](C=O)(OC)[C@@H]2CC[C@H]2CN2C[C@@]3(CCCc4cc(Cl)ccc43)COc3ccc(cc32)C(=O)NS1(=O)=O (single isomer, unassigned) [Example 100580] | 0.877 nM | – | 6580 nM | –
C[C@@H]1[C@@H](C)C/C=C/[C@](C)(OCCN2CCOCC2)[C@@H]2CC[C@H]2CN2C[C@@]3(CCCc4cc(Cl)ccc43)COc3ccc(cc32)C(=O)NS1(=O)=O [Example 100007, (1 S,3′R,6′R,7′S,8′E,11′S, 12′R)-6-chloro-7′,11′,12′-trimethyl-7′-(2-(4-morpholinyl)ethoxy)-3,4-dihydro-2H, 15′H-spiro[naphthalene-1,22′-[20]oxa[13]thia[1,14]diazatetracyclo[14.7.2.0-3,6˜.0˜19,24˜]pentacosa[8,16,18,24]tetraen]-15′-one 13′,13′-dioxide] | 0.367 nM | – | 142 nM | –
C[C@@H]1[C@@H](C)CCC[C@@](O)(C#CCCN2CCOCC2)[C@@H]2CC[C@H]2CN2C[C@@]3(CCCc4cc(Cl)ccc43)COc3ccc(cc32)C(=O)NS1(=O)=O [Example 100371, (1S,3′R,6′R,7′S,11′S,12′R)-6-chloro-7′-hydroxy-11′,12′-dimethyl-7′-(4-(4-morpholinyl)-1-butyn-1-yl)-3,4-dihydro-2H,15′H-spiro[naphthalene-1,22′-[20]oxa[13]thia[1,14]diazatetracyclo [14.7.2.0~3,6~.0~19,24~]pentacosa[16,18,24]trien]-15′-one 13′,13′-dioxide] | 0.39 nM | – | – | IC50 [1, 3]: 307 nM
CCCO[C@]1(C=O)/C=C/C[C@H](C)[C@@H](C)S(=O)(=O)NC(=O)c2ccc3c(c2)N(C[C@@H]2CC[C@H]21)C[C@@]1(CCCc2cc(Cl)ccc21)CO3 [Example 100602, (1S,3′R,6′R,7′R,8′E,11′S,12′R)-6-chloro-11′,12′-dimethyl-15′-oxo-7′-propoxy-3,4-dihydro-2H-spiro[naphthalene-1,22′-[20]oxa[13]thia[1,14]diazatetracyclo [14.7.2.0~3,6~.0~19,24~]pentacosa[8,16,18,24]tetraene]-7′-carbaldehyde 13′,13′-dioxide] | 0.8 nM | – | 2330 nM | –
C[C@@H]1[C@@H](C)C/C=C/[C@](O)(c2nccn2C)[C@@H]2CC[C@H]2CN2C[C@@]3(CCCc4cc(Cl)ccc43)COc3ccc(cc32)C(=O)NS1(=O)=O [Example 100198, (1S,3′R,6′R,7′R,8′E,11′S,12′R)-6-chloro-7′-hydroxy-11′,12′-dimethyl-7′-(1-methyl-1H-imidazol-2-yl)-3,4-dihydro-2H,15′H-spiro[naphthalene-1,22′-[20]oxa[13]thia[1,14]diazatetracyclo [14.7.2.0~3,6~.0~19,24~]pentacosa[8,16,18,24]tetraen]-15′-one 13′,13′-dioxide] | 0.307 nM | – | – | IC50 [1, 3]: 399 nM
CO[C@]1(CN2CCN3C(=O)COC[C@@H]3C2)/C=C/C[C@H](C)[C@@H](C)S(=O)(=O)NC(=O)c2ccc3c(c2)N(C[C@@H]2CC[C@H]21)C[C@@]1(CCCc2cc(Cl)ccc21)CO3 [Example 140, (1S,3′R,6′R,7′R,8′E,11′S,12′R)-6-chloro-7′-methoxy-11′,12′-dimethyl-7′-(((9aS)-4-oxohexahydropyrazino[2,1-c][1,4]oxazin-8(1H)-yl)methyl)-3,4-dihydro-2H,15′H-spiro[naphthalene-1,22′-[20]oxa[13]thia[1,14]diazatetracyclo [14.7.2.0~3,6~.0~19,24~]pentacosa[8,16,18,24]tetraen]-15′-one 13′,13′-dioxide] | – | 0.098 nM | – | IC50 [1, 5]: 125 nM
CO[C@@]1(CN2CCN3CCN(C(=O)CCS(=O)(=O)c4ccccc4)C[C@@H]3C2)/C=C/C[C@H](C)[C@@H](C)S(=O)(=O)NC(=O)c2ccc3c(c2)N(C[C@@H]2CC[C@H]21)C[C@@]1(CCCc2cc(Cl)ccc21)CO3 [Example 233] | – | 0.516 nM | – | IC50 [1, 8]: 202 nM
C[C@@H]1[C@@H](C)CCC[C@](CO)(NC(=O)c2ccccc2)[C@@H]2CC[C@H]2CN2C[C@@]3(CCCc4cc(Cl)ccc43)COc3ccc(cc32)C(=O)NS1(=O)=O [Example 100256, N-((1S,3′R,6′R,7′S,11′S,12′R)-6-chloro-7′-(hydroxymethyl)-11′,12′-dimethyl-13′,13′-dioxido-15′-oxo-3,4-dihydro-2H-spiro[naphthalene-1,22′-[20]oxa[13]thia[1,14]diazatetracyclo [14.7.2.0~3,6~.0~19,24~]pentacosa[16,18,24]trien]-7′-yl)benzamide] | 5.04 nM | – | 1200 nM | –
CO[C@]1(Cc2cc(C)on2)/C=C/C[C@H](C)[C@@H](C)S(=O)(=O)NC(=O)c2ccc3c(c2)N(C[C@@H]2CC[C@H]21)C[C@@]1(CCCc2cc(Cl)ccc21)CO3 [Example 100548, (1S,3′R,6′R,7′R,8′E,11′S,12′R)-6-chloro-7′-methoxy-11′,12′-dimethyl-7′-((5-methyl-1,2-oxazol-3-yl)methyl)-3,4-dihydro-2H,15′H-spiro[naphthalene-1,22′-[20]oxa[13]thia[1,14]diazatetracyclo [14.7.2.0~3,6~.0~19,24~]pentacosa[8,16,18,24]tetraen]-15′-one 13′,13′-dioxide] | 0.064 nM | – | 8410 nM | –
(1S,3′R,6′R,7′S,8′E,11′S,12′R)-6-chloro-7′-(2-methoxyethoxy)-11′,12′-dimethyl-7′-((9aR)-octahydro-2H-pyrido[1,2-a]pyrazin-2-ylmethyl)-3,4-dihydro-2H, 15′H-spiro[naphthalene-1,22′-[20]oxa[13]thia[1,14]diazatetracyclo[14.7.2.0-3,6˜.0˜19,24˜]pentacosa[8,16,18,24]tetraen]-15′-one 13′,13′-dioxide [Example 151] | – | 0.843 nM | – | IC50 [1, 8]: 462 nM
C[C@@H]1[C@@H](C)CCC[C@]2(CC(N(C)C)=NO2)[C@@H]2CC[C@H]2CN2C[C@@]3(CCCc4cc(Cl)ccc43)COc3ccc(cc32)C(=O)NS1(=O)=O [Example 100136, (1S,3′R,6′R,7′S,11′S,12′R)-6-chloro-3″- (dimethylamino)-11′,12′-dimethyl-3,4-dihydro-2H,4″H,15′H-dispiro[naphthalene-1,22′-[20]oxa[13]thia[1,14]diazatetracyclo [14.7.2.0~3,6~.0~19,24~]pentacosa[16,18,24]triene-7′,5″-[1,2]oxazol]-15′-one 13′,13′-dioxide] | 0.368 nM | – | 556 nM | –
